The supplement of paper PMC10307832

Key:
Assay in all cases: relative viability (nuclei count vs DMSO), 5 days (fraction); higher = more cells survive
[1] = compound: CS(=O)(=O)N1CCN(Cc2cc3nc(-c4cccc5[nH]ncc45)nc(N4CCOCC4)c3s2)CC1 [Pictilisib] + N=C(N)NC(=N)NCCc1ccccc1 [Phenformin] (partner 250 µM)
Procedure, shortened: (§1)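 Lung cancer cell lines, seeded in 1536-well plates, were treated the following day by pin tool with a single drug or with five library-drug doses (not always all listed) in √10 steps on top of a fixed anchor-drug dose. Cells were fixed and nuclei stained in one step after 5 days, and nuclei were counted. Relative viability is the nuclei count for treated wells divided by that for vehicle wells, reported as medians of duplicate plates.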

[2] = compound: CS(=O)(=O)N1CCN(Cc2cc3nc(-c4cccc5[nH]ncc45)nc(N4CCOCC4)c3s2)CC1 [Pictilisib] + O=C(CCCCCCC(=O)Nc1ccccc1)NO [Vorinostat] (partner 1 µM)
Procedure, shortened: as §1

[3] = compound: NC1(c2ccc(-c3nc4ccn5c(=O)[nH]nc5c4cc3-c3ccccc3)cc2)CCC1 [MK-2206] + CCNC(=O)c1noc(-c2cc(C(C)C)c(O)cc2O)c1-c1ccc(CN2CCOCC2)cc1 [Luminespib] (partner 0.01 µM)
Procedure, shortened: as §1

[4] = compound: NC1(c2ccc(-c3nc4ccn5c(=O)[nH]nc5c4cc3-c3ccccc3)cc2)CCC1 [MK-2206] + N=C(N)NC(=N)NCCc1ccccc1 [Phenformin] (partner 250 µM)
Procedure, shortened: as §1

[5] = compound: NC1(c2ccc(-c3nc4ccn5c(=O)[nH]nc5c4cc3-c3ccccc3)cc2)CCC1 [MK-2206] + O=C(c1cc(Cc2n[nH]c(=O)c3ccccc23)ccc1F)N1CCN(C(=O)C2CC2)CC1 [Olaparib] (partner 8 µM)
Procedure, shortened: as §1

Cell Line	relative viability ([1]; first compound 0.02 µM)	relative viability ([1]; first compound 0.06325 µM)	relative viability ([1]; first compound 0.6325 µM)	relative viability ([1]; first compound 2 µM)	relative viability ([2]; first compound 0.02 µM)	relative viability ([2]; first compound 0.06325 µM)	relative viability ([2]; first compound 0.6325 µM)	relative viability ([2]; first compound 2 µM)	relative viability ([3]; first compound 0.01 µM)	relative viability ([3]; first compound 0.03162 µM)	relative viability ([3]; first compound 0.3162 µM)	relative viability ([3]; first compound 1 µM)	relative viability ([4]; first compound 0.01 µM)	relative viability ([4]; first compound 0.03162 µM)	relative viability ([4]; first compound 0.3162 µM)	relative viability ([4]; first compound 1 µM)	relative viability ([5]; first compound 0.01 µM)	relative viability ([5]; first compound 0.03162 µM)	relative viability ([5]; first compound 0.3162 µM)	relative viability ([5]; first compound 1 µM)
BEN	0.315	0.286	0.286	0.248	0.583	0.615	0.609	0.441	0.404	0.484	0.274	0.495	0.258	0.267	0.272	0.295	1.06	1.2	1.14	1.02
NCI-H647	0.667	0.698	0.291	0.227	0.532	0.795	0.515	0.276	0.0812	0.159	0.156	0.126	0.479	0.542	0.38	0.542	0.568	0.559	0.662	0.388
PC-14	0.858	0.719	0.621	0.386	0.72	0.661	0.534	0.325	0.181	0.214	0.143	0.159	0.493	0.663	0.584	0.525	0.274	0.313	0.371	0.354
NCI-H1666	0.576	0.615	0.522	0.462	1.09	1.03	0.916	0.867	0.961	1.02	1.13	1.01	0.586	0.595	0.568	0.563	0.702	0.794	0.802	0.774
COR-L 105	0.584	0.508	0.362	0.272	0.91	0.874	0.594	0.606	0.868	0.803	0.888	0.729	0.51	0.472	0.392	0.489	0.774	0.7	0.57	0.749
LU99A	0.911	0.869	0.791	0.532	0.548	0.593	0.327	0.225	0.284	0.251	0.268	0.203	1.01	0.874	0.803	0.903	0.283	0.231	0.251	0.287
NCI-H596	0.697	0.697	0.375	0.305	0.545	0.618	0.371	0.709	0.984	0.919	0.889	0.737	0.738	0.956	0.651	0.481	0.745	0.698	0.732	0.688
201T	0.476	0.443	0.409	0.3	0.859	0.966	0.869	0.622	1.01	1.05	1.09	1.03	0.446	0.417	0.42	0.52	0.825	0.857	0.858	0.856
HCC-15	0.506	0.504	0.346	0.261	0.841	0.818	0.707	0.535	0.404	0.232	0.413	0.292	0.469	0.519	0.442	0.288	0.722	0.757	0.625	0.692
